Assay results from PubChem BioAssay AID256 (DTP/NCI, 2004).
Several values for one entry are separate records, joined by “and”; a condition that tells them apart may be missing. Equal values may be shown once. Toxic doses and inconclusive results are not listed. Rule for the calls: active = survival T/C of 150% or more; inactive = T/C below 125% in these data.

System: CD2F1 mice, L1210 leukemia ip, survival T/C
Experiment: NCI In Vivo Anticancer Drug Screen. Data for tumor model L1210 Leukemia (intraperitoneal) in CD2F1 (CDF1) mice
Details: higher = longer survival
Method in brief: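 Activity against a transplanted murine tumor was judged by comparing the compound group with a vehicle group. The outcome in the treated animals was divided by that in the controls.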

Measured: T/C

Cc1[nH]c(=O)[nH]c(=O)c1N(CCF)CCCl
inactive: endpoint: mean survival time, dose: 1.8 mg/kg/injection, schedule: Q01DX009 (ip), vehicle: saline 98 % of control | endpoint: mean survival time, dose: 3.0 mg/kg/injection, schedule: Q01DX009 (ip), vehicle: saline 102 % of control | endpoint: mean survival time, dose: 5.0 mg/kg/injection, schedule: Q01DX009 (ip), vehicle: saline 104 % of control | endpoint: mean survival time, dose: 8.0 mg/kg/injection, schedule: Q01DX001 (ip), vehicle: acid diluted with saline 95 % of control and 102 % of control | endpoint: mean survival time, dose: 8.0 mg/kg/injection, schedule: Q01DX001 (ip), vehicle: saline 98 % of control | endpoint: mean survival time, dose: 8.4 mg/kg/injection, schedule: Q01DX009 (ip), vehicle: saline 106 % of control | endpoint: mean survival time, dose: 8.4 mg/kg/injection, schedule: Q04DX003 (ip), vehicle: saline 108 % of control | endpoint: mean survival time, dose: 14.0 mg/kg/injection, schedule: Q01DX009 (ip), vehicle: saline 113 % of control | endpoint: mean survival time, dose: 14.0 mg/kg/injection, schedule: Q04DX003 (ip), vehicle: saline 105 % of control | endpoint: mean survival time, dose: 16.0 mg/kg/injection, schedule: Q01DX001 (ip), vehicle: acid diluted with saline 97 % of control and 100 % of control | endpoint: mean survival time, dose: 16.0 mg/kg/injection, schedule: Q01DX001 (ip), vehicle: saline 94 % of control and 100 % of control | endpoint: mean survival time, dose: 23.0 mg/kg/injection, schedule: Q01DX001 (ip), vehicle: saline 117 % of control | endpoint: mean survival time, dose: 23.0 mg/kg/injection, schedule: Q01DX009 (ip), vehicle: saline 107 % of control | endpoint: mean survival time, dose: 23.0 mg/kg/injection, schedule: Q04DX003 (ip), vehicle: saline 114 % of control | endpoint: mean survival time, dose: 32.0 mg/kg/injection, schedule: Q01DX001 (ip), vehicle: acid diluted with saline 96 % of control and 102 % of control | endpoint: mean survival time, dose: 32.0 mg/kg/injection, schedule: Q01DX001 (ip), vehicle: saline 105 % of control and 109 % of control | endpoint: mean survival time, dose: 39.0 mg/kg/injection, schedule: Q01DX001 (ip), vehicle: saline 117 % of control | endpoint: mean survival time, dose: 64.0 mg/kg/injection, schedule: Q01DX001 (ip), vehicle: acid diluted with saline 107 % of control and 110 % of control | endpoint: mean survival time, dose: 64.0 mg/kg/injection, schedule: Q01DX001 (ip), vehicle: saline 115 % of control and 120 % of control | endpoint: mean survival time, dose: 65.0 mg/kg/injection, schedule: Q01DX001 (ip), vehicle: saline 123 % of control | endpoint: median survival time, dose: 0.5 mg/kg/injection, schedule: Q03HX024 (ip), vehicle: acid diluted with saline 107 % of control | endpoint: median survival time, dose: 1.0 mg/kg/injection, schedule: Q03HX016 (ip), vehicle: acid diluted with saline 98 % of control | endpoint: median survival time, dose: 1.0 mg/kg/injection, schedule: Q03HX024 (ip), vehicle: acid diluted with saline 105 % of control | endpoint: median survival time, dose: 2.0 mg/kg/injection, schedule: Q01DX009 (ip), vehicle: acid diluted with saline 107 % of control | endpoint: median survival time, dose: 2.0 mg/kg/injection, schedule: Q03HX008 (ip), vehicle: acid diluted with saline 96 % of control | endpoint: median survival time, dose: 2.0 mg/kg/injection, schedule: Q03HX016 (ip), vehicle: acid diluted with saline 100 % of control | endpoint: median survival time, dose: 2.0 mg/kg/injection, schedule: Q03HX024 (ip), vehicle: acid diluted with saline 108 % of control | endpoint: median survival time, dose: 2.0 mg/kg/injection, schedule: Q03HX024 (oral), vehicle: acid diluted with saline 100 % of control | endpoint: median survival time, dose: 4.0 mg/kg/injection, schedule: Q01DX009 (ip), vehicle: acid diluted with saline 117 % of control | endpoint: median survival time, dose: 4.0 mg/kg/injection, schedule: Q01DX009 (sc), vehicle: acid diluted with saline 104 % of control | endpoint: median survival time, dose: 4.0 mg/kg/injection, schedule: Q03HX008 (ip), vehicle: acid diluted with saline 96 % of control | endpoint: median survival time, dose: 4.0 mg/kg/injection, schedule: Q03HX016 (ip), vehicle: acid diluted with saline 111 % of control | endpoint: median survival time, dose: 4.0 mg/kg/injection, schedule: Q03HX024 (ip), vehicle: acid diluted with saline 105 % of control | endpoint: median survival time, dose: 4.0 mg/kg/injection, schedule: Q03HX024 (oral), vehicle: acid diluted with saline 100 % of control | endpoint: median survival time, dose: 4.0 mg/kg/injection, schedule: Q04DX003 (ip), vehicle: acid diluted with saline 96 % of control | endpoint: median survival time, dose: 8.0 mg/kg/injection, schedule: Q01DX009 (ip), vehicle: acid diluted with saline 108 % of control | endpoint: median survival time, dose: 8.0 mg/kg/injection, schedule: Q01DX009 (oral), vehicle: acid diluted with saline 100 % of control | endpoint: median survival time, dose: 8.0 mg/kg/injection, schedule: Q01DX009 (sc), vehicle: acid diluted with saline 100 % of control | endpoint: median survival time, dose: 8.0 mg/kg/injection, schedule: Q03HX008 (ip), vehicle: acid diluted with saline 100 % of control | endpoint: median survival time, dose: 8.0 mg/kg/injection, schedule: Q03HX008 (oral), vehicle: acid diluted with saline 106 % of control | endpoint: median survival time, dose: 8.0 mg/kg/injection, schedule: Q03HX016 (ip), vehicle: acid diluted with saline 97 % of control | endpoint: median survival time, dose: 8.0 mg/kg/injection, schedule: Q03HX016 (oral), vehicle: acid diluted with saline 100 % of control | endpoint: median survival time, dose: 8.0 mg/kg/injection, schedule: Q03HX024 (ip), vehicle: acid diluted with saline 108 % of control | endpoint: median survival time, dose: 8.0 mg/kg/injection, schedule: Q03HX024 (oral), vehicle: acid diluted with saline 100 % of control | endpoint: median survival time, dose: 8.0 mg/kg/injection, schedule: Q04DX003 (ip), vehicle: acid diluted with saline 100 % of control | endpoint: median survival time, dose: 8.0 mg/kg/injection, schedule: Q08DX002 (ip), vehicle: acid diluted with saline 100 % of control | endpoint: median survival time, dose: 16.0 mg/kg/injection, schedule: Q01DX001 (ip), vehicle: acid diluted with saline 98 % of control | endpoint: median survival time, dose: 16.0 mg/kg/injection, schedule: Q01DX001 (sc), vehicle: acid diluted with saline 98 % of control | endpoint: median survival time, dose: 16.0 mg/kg/injection, schedule: Q01DX009 (ip), vehicle: acid diluted with saline 120 % of control | endpoint: median survival time, dose: 16.0 mg/kg/injection, schedule: Q01DX009 (oral), vehicle: acid diluted with saline 106 % of control | endpoint: median survival time, dose: 16.0 mg/kg/injection, schedule: Q01DX009 (sc), vehicle: acid diluted with saline 104 % of control | endpoint: median survival time, dose: 16.0 mg/kg/injection, schedule: Q03HX008 (ip), vehicle: acid diluted with saline 96 % of control | endpoint: median survival time, dose: 16.0 mg/kg/injection, schedule: Q03HX008 (oral), vehicle: acid diluted with saline 112 % of control | endpoint: median survival time, dose: 16.0 mg/kg/injection, schedule: Q03HX016 (ip), vehicle: acid diluted with saline 102 % of control | endpoint: median survival time, dose: 16.0 mg/kg/injection, schedule: Q03HX016 (oral), vehicle: acid diluted with saline 112 % of control | endpoint: median survival time, dose: 16.0 mg/kg/injection, schedule: Q03HX024 (oral), vehicle: acid diluted with saline 112 % of control | endpoint: median survival time, dose: 16.0 mg/kg/injection, schedule: Q04DX003 (ip), vehicle: acid diluted with saline 108 % of control | endpoint: median survival time, dose: 16.0 mg/kg/injection, schedule: Q04DX003 (oral), vehicle: acid diluted with saline 106 % of control | endpoint: median survival time, dose: 16.0 mg/kg/injection, schedule: Q08DX002 (ip), vehicle: acid diluted with saline 105 % of control | endpoint: median survival time, dose: 32.0 mg/kg/injection, schedule: Q01DX001 (ip), vehicle: acid diluted with saline 98 % of control | endpoint: median survival time, dose: 32.0 mg/kg/injection, schedule: Q01DX001 (sc), vehicle: acid diluted with saline 100 % of control | endpoint: median survival time, dose: 32.0 mg/kg/injection, schedule: Q01DX009 (oral), vehicle: acid diluted with saline 112 % of control | endpoint: median survival time, dose: 32.0 mg/kg/injection, schedule: Q03HX008 (ip), vehicle: acid diluted with saline 104 % of control | endpoint: median survival time, dose: 32.0 mg/kg/injection, schedule: Q04DX003 (ip), vehicle: acid diluted with saline 108 % of control | endpoint: median survival time, dose: 32.0 mg/kg/injection, schedule: Q04DX003 (oral), vehicle: acid diluted with saline 112 % of control | endpoint: median survival time, dose: 32.0 mg/kg/injection, schedule: Q08DX002 (ip), vehicle: acid diluted with saline 100 % of control | endpoint: median survival time, dose: 64.0 mg/kg/injection, schedule: Q01DX001 (ip), vehicle: acid diluted with saline 98 % of control | endpoint: median survival time, dose: 64.0 mg/kg/injection, schedule: Q01DX001 (oral), vehicle: acid diluted with saline 112 % of control | endpoint: median survival time, dose: 64.0 mg/kg/injection, schedule: Q01DX001 (sc), vehicle: acid diluted with saline 100 % of control | endpoint: median survival time, dose: 64.0 mg/kg/injection, schedule: Q01DX009 (oral), vehicle: acid diluted with saline 112 % of control | endpoint: median survival time, dose: 64.0 mg/kg/injection, schedule: Q04DX003 (ip), vehicle: acid diluted with saline 90 % of control | endpoint: median survival time, dose: 64.0 mg/kg/injection, schedule: Q04DX003 (oral), vehicle: acid diluted with saline 112 % of control | endpoint: median survival time, dose: 64.0 mg/kg/injection, schedule: Q08DX002 (ip), vehicle: acid diluted with saline 98 % of control | endpoint: median survival time, dose: 64.0 mg/kg/injection, schedule: Q08DX002 (oral), vehicle: acid diluted with saline 112 % of control | endpoint: median survival time, dose: 128.0 mg/kg/injection, schedule: Q01DX001 (oral), vehicle: acid diluted with saline 100 % of control | endpoint: median survival time, dose: 128.0 mg/kg/injection, schedule: Q01DX001 (sc), vehicle: acid diluted with saline 100 % of control | endpoint: median survival time, dose: 128.0 mg/kg/injection, schedule: Q04DX003 (oral), vehicle: acid diluted with saline 112 % of control | endpoint: median survival time, dose: 128.0 mg/kg/injection, schedule: Q08DX002 (oral), vehicle: acid diluted with saline 106 % of control | endpoint: median survival time, dose: 256.0 mg/kg/injection, schedule: Q01DX001 (oral), vehicle: acid diluted with saline 100 % of control | endpoint: median survival time, dose: 256.0 mg/kg/injection, schedule: Q01DX001 (sc), vehicle: acid diluted with saline 105 % of control | endpoint: median survival time, dose: 256.0 mg/kg/injection, schedule: Q04DX003 (oral), vehicle: acid diluted with saline 112 % of control | endpoint: median survival time, dose: 256.0 mg/kg/injection, schedule: Q08DX002 (oral), vehicle: acid diluted with saline 100 % of control | endpoint: median survival time, dose: 512.0 mg/kg/injection, schedule: Q01DX001 (oral), vehicle: acid diluted with saline 112 % of control
